Measurements: patent US20220081434A1, “DIHYDROISOQUINOLINE COMPOUND” (SUZHOU ARK BIOPHARMACEUTICAL CO., LTD., priority 2019, published 2022)
Where two headings read alike, the source gives them in different places.

What was measured:
[1] = system: hepatitis B surface antigen (HBsAg); assay: Determination of hepatitis B surface antigen (HBsAg) in HepG2.2.15 cell supernatant; assay type: cell-based, hepatitis B virus (HepG2.2.15 cells); conditions: Hepatitis B virus, HepG2.2.15, 96 h, read-out: HBsAg inhibitory activity IC50
Procedure: (§1) The full genome of HBV was inserted into an […] cell, which could therefore express HBV continuously (Sells et al, Proc Natl Acad Sci USA. 1987 February; 84 (4):1005-9). The culture condition was DMEM medium containing 10% serum and […] G418. Cells were placed in an incubator containing 5% CO2 and cultured at 37° C.
HepG2.2.15 cells were seeded into a 96-well culture plate at a density of 3×10^4 cells/well. On the next day, the drug dissolved in DMSO was subjected to a 5-fold dilution and then added to the cells. 0.5% DMSO was added separately as control. The supernatant was collected after 4 days of drug action, and the content of hepatitis B surface antigen was determined.
The determination of hepatitis B surface antigen was carried out by using a kit for quantitative determination of hepatitis B virus surface antigen (chemiluminescence method). The specific operations were as follows. 50 μL cell culture supernatant was taken and transferred to the assay plate. 50 μL of enzyme-linked reagent was added thereto and the assay plate was sealed. Incubation was carried out at room temperature for 1 hour. Afterwards, the assay plate was washed six times with PBS, and finally, the residual liquid was removed by shaking the plate. 25 μL of substrates A and B were added respectively, and the determination was conducted by using a microplate reader (Tecan Infinite® F200) after ten minutes of reaction. IC50 was calculated after fitting the dose-response curve.

HBV DNA = assay: Determination of HBV DNA in HepG2.2.15 cell supernatant by qPCR; assay type: cell-based, hepatitis B virus (HepG2.2.15 cells); conditions: Hepatitis B virus, 168 h, HepG2.2.15 cells, supernatant after a total of 7 days of drug action, read-out: Inhibitory activity against HBV DNA IC50
Procedure: as §1
HepG2.2.15 cells were seeded into a 96-well culture plate at a density of 4×10^4 cells/well. After 4 hours, the drug dissolved in DMSO was subjected to a 4-fold dilution and then added to cells. 0.5% DMSO was added separately as control. On the 4th day of drug action, the original supernatant was removed and then the drug was added thereto again. The supernatant was collected after a total of 7 days of drug action and treated with lysis buffer. The determination of hepatitis B DNA was carried out by real-time fluorescence-based quantitative polymerase chain reaction (qPCR). After the completion of the qPCR, data were exported from the instrument and analyzed, and IC50 indicating antiviral activity was calculated after fitting the dose-response curve.

[2] = Pharmacokinetic experiments in ICR mice (plasma); assay type: in vivo; conditions: for AUC(0-t): read-out: AUC0-12
Procedure: Multiple compounds in the Examples of the present disclosure were administered to ICR mice to conduct pharmacokinetic experiments. A single intravenous injection (with a dose of 2 mg/kg) and a single oral administration (with a dose of 10 mg/kg) were administered respectively. Blood was respectively collected prior to administration and 5 minutes, 15 minutes, 30 minutes, 1 hour, 2 hours, 4 hours, 8 hours, 12 hours and 24 hours after administration, and the concentration of the test compound in plasma was determined. Plasma pharmacokinetic data of the control compound (obtained from Example 28 in patent WO2018130152 A1) and the compounds of Examples 10 and 19 in the present disclosure in mice were as shown in the following Table 5 to Table 7.

[3] = mouse, single intravenous injection 2 mg/kg, plasma
[4] = mouse, single oral administration 10 mg/kg, plasma

| Compound | IC50 [1] | other results |
| --- | --- | --- |
| COc1cc2c(cc1-c1cnc(C(C)OC)s1)CC(C(C)(C)C)n1cc(C(=O)O)c(=O)cc1-2 (stereo not shown) [Example 15, 6-tert-butyl-10-methoxy-9-[2-(1-methoxyethyl)thiazol-5-yl]-2-oxo-6,7-dihydro-2H-pyrido[2,1-a]isoquinoline-3-carboxylic Acid] | 0.2 nM | – |
| COc1cc2c(cc1-c1cnc(N3CCC3)s1)CC(C(C)(C)C)n1cc(C(=O)O)c(=O)cc1-2 (stereo not shown) [Example 3, 9-[2-(azetidin-1-yl)thiazol-5-yl]-6-tert-butyl-10-methoxy-2-oxo-6,7-dihydro-2H-pyrido[2,1-a]isoquinoline-3-carboxylic Acid] | 0.07 nM | – |
| COc1cc2c(cc1-c1cnc(C(C)(C)OC)s1)CC(C(C)(C)C)n1cc(C(=O)O)c(=O)cc1-2 (stereo not shown) [Example 17, 6-tert-butyl-10-methoxy-9-[2-(2-methoxypropan-2-yl)thiazol-5-yl]-2-oxo-6,7-dihydro-2H-pyrido[2,1-a]isoquinoline-3-carboxylic Acid] | 0.3 nM | – |
| CCOc1ncc(-c2cc3c(cc2OC)-c2cc(=O)c(C(=O)O)cn2C(C(C)(C)C)C3)s1 (stereo not shown) [Example 13, 6-tert-butyl-9-[2-(ethoxy)thiazol-5-yl]-10-methoxy-2-oxo-6,7-dihydro-2H-pyrido[2,1-a]isoquinoline-3-carboxylic Acid] | 0.2 nM | IC50 (HBV DNA): 0.31 nM |
| CCCc1ncc(-c2cc3c(cc2OC)-c2cc(=O)c(C(=O)O)cn2C(C(C)(C)C)C3)s1 (stereo not shown) [Example 18, 6-tert-butyl-10-methoxy-2-oxo-9-(2-propylthiazol-5-yl)-6,7-dihydro-2H-pyrido[2,1-a]isoquinoline-3-carboxylic Acid] | 0.09 nM | IC50 (HBV DNA): 0.06 nM |
| COc1cc2c(cc1-c1cnc(C3CC(OC)C3)s1)CC(C(C)(C)C)n1cc(C(=O)O)c(=O)cc1-2 (stereo not shown) [Example 27, 6-tert-butyl-10-methoxy-9-[2-(3-methoxycyclobutyl)thiazol-5-yl]-2-oxo-6,7-dihydro-2H-pyrido[2,1-a]isoquinoline-3-carboxylic Acid] | 0.1 nM | – |
| COc1cc2c(cc1-c1cnc(N3CCC(O)CC3)s1)CC(C(C)(C)C)n1cc(C(=O)O)c(=O)cc1-2 (stereo not shown) [Example 1, 6-tert-butyl-9-[2-(4-hydroxypiperidin-1-yl)thiazol-5-yl]-10-methoxy-2-oxo-6,7-dihydro-2H-pyrido[2,1-a]isoquinoline-3-carboxylic Acid] | 0.33 nM | – |
| COc1cc2c(cc1-c1cnc(C3CC(F)C3)s1)CC(C(C)(C)C)n1cc(C(=O)O)c(=O)cc1-2 (stereo not shown) [Example 26, 6-tert-butyl-9-[2-(3-fluorocyclobutyl)thiazol-5-yl]-10-methoxy-2-oxo-6,7-dihydro-2H-pyrido[2,1-a]isoquinoline-3-carboxylic Acid] | 0.1 nM | – |
| COCCNC(=O)c1ncc(-c2cc3c(cc2OC)-c2cc(=O)c(C(=O)O)cn2C(C(C)(C)C)C3)s1 (stereo not shown) [Example 22, 6-tert-butyl-10-methoxy-9-{2-[(2-methoxyethyl)carbamoyl]thiazol-5-yl}-2-oxo-6,7-dihydro-2H-pyrido[2,1-a]isoquinoline-3-carboxylic Acid] | 0.4 nM | – |
| COCCOc1ncc(-c2cc3c(cc2OC)-c2cc(=O)c(C(=O)O)cn2C(C(C)(C)C)C3)s1 (stereo not shown) [Example 21, 6-tert-butyl-10-methoxy-9-[2-(2-methoxyethoxy)thiazol-5-yl]-2-oxo-6,7-dihydro-2H-pyrido[2,1-a]isoquinoline-3-carboxylic Acid] | 0.3 nM | – |
| COc1cc2c(cc1-c1cnc(N(C)C)s1)CC(C(C)(C)C)n1cc(C(=O)O)c(=O)cc1-2 (stereo not shown) [Example 6, 6-tert-butyl-9-[2-(dimethylamino)thiazol-5-yl]-10-methoxy-2-oxo-6,7-dihydro-2H-pyrido[2,1-a]isoquinoline-3-carboxylic Acid] | 0.3 nM | – |
| COc1ncc(-c2cc3c(cc2OC)-c2cc(=O)c(C(=O)O)cn2C(C(C)(C)C)C3)s1 (stereo not shown) [Example 12, 6-tert-butyl-10-methoxy-9-(2-methoxythiazol-5-yl)-2-oxo-6,7-dihydro-2H-pyrido[2,1-a]isoquinoline-3-carboxylic Acid] | 0.45 nM | – |
| COc1cc2c(cc1-c1cnc(N3CCOCC3)s1)CC(C(C)(C)C)n1cc(C(=O)O)c(=O)cc1-2 (stereo not shown) [Example 5, 6-tert-butyl-10-methoxy-9-(2-morpholinothiazol-5-yl)-2-oxo-6,7-dihydro-2H-pyrido[2,1-a]isoquinoline-3-carboxylic Acid] | 0.3 nM | – |
| CNC(=O)c1ncc(-c2cc3c(cc2OC)-c2cc(=O)c(C(=O)O)cn2C(C(C)(C)C)C3)s1 (stereo not shown) [Example 19, 6-tert-butyl-10-methoxy-9-[2-(methylcarbamoyl)thiazol-5-yl]-2-oxo-6,7-dihydro-2H-pyrido[2,1-a]isoquinoline-3-carboxylic Acid] | 0.3 nM | bioavailability ([2]; mouse, plasma, oral 10 mg/kg vs intravenous 2 mg/kg, read-out: F (bioavailability)): 87%; AUC(0-inf) [2, 3]: 1210 ng·h/mL; Cmax [2, 3]: 1020 ng/mL; Tmax [2, 3]: 4.8 min; clearance [2, 3]: 27.6 mL/min/kg; half-life [2, 3]: 78 min; AUC(0-t) [2, 3]: 1200 ng·h/mL; Vd ([2]; mouse, single intravenous injection 2 mg/kg, plasma, read-out: Vss): 2.27 L/kg; AUC(0-inf) [2, 4]: 5290 ng·h/mL; Cmax [2, 4]: 2420 ng/mL; Tmax [2, 4]: 30 min; half-life [2, 4]: 150 min; AUC(0-t) [2, 4]: 5210 ng·h/mL; plasma exposure compared with the control compound ([2]; same dose, after intravenous injection and oral administration): significantly higher |
| COc1cc2c(cc1-c1cnc(C(C)O)s1)CC(C(C)(C)C)n1cc(C(=O)O)c(=O)cc1-2 (stereo not shown) [Example 16, 6-tert-butyl-9-[2-(1-hydroxyethyl)thiazol-5-yl]-10-methoxy-2-oxo-6,7-dihydro-2H-pyrido[2,1-a]isoquinoline-3-carboxylic Acid] | 0.1 nM | IC50 (HBV DNA): 0.41 nM |
| COc1cc2c(cc1-c1cnc(COC3CC3)s1)CC(C(C)(C)C)n1cc(C(=O)O)c(=O)cc1-2 (stereo not shown) [Example 24, 6-tert-butyl-9-[2-(cyclopropoxymethyl)thiazol-5-yl]-10-methoxy-2-oxo-6,7-dihydro-2H-pyrido[2,1-a] isoquinoline-3-carboxylic Acid] | 0.2 nM | IC50 (HBV DNA): 0.45 nM |
| COc1cc2c(cc1-c1cnc(N3CCC(OC)CC3)s1)CC(C(C)(C)C)n1cc(C(=O)O)c(=O)cc1-2 (stereo not shown) [Example 8, 6-tert-butyl-10-methoxy-9-[2-(4-methoxypiperidin-1-yl)thiazol-5-yl]-2-oxo-6,7-dihydro-2H-pyrido[2,1-a]isoquinoline-3-carboxylic Acid] | 0.2 nM | – |
| COc1cc2c(cc1-c1cnc(N3CCC(CO)CC3)s1)CC(C(C)(C)C)n1cc(C(=O)O)c(=O)cc1-2 (stereo not shown) [Example 2, 6-tert-butyl-9-{2-[4-(hydroxymethyl)piperidin-1-yl]thiazol-5-yl}-10-methoxy-2-oxo-6,7-dihydro-2H-pyrido[2,1-a]isoquinoline-3-carboxylic Acid] | 0.06 nM | IC50 (HBV DNA): 0.11 nM |
| COc1cc2c(cc1-c1cnc(C3CC(F)(F)C3)s1)CC(C(C)(C)C)n1cc(C(=O)O)c(=O)cc1-2 (stereo not shown) [Example 25, 6-tert-butyl-9-[2-(3,3-difluorocyclobutyl)thiazol-5-yl]-10-methoxy-2-oxo-6,7-dihydro-2H-pyrido[2,1-a]isoquinoline-3-carboxylic Acid] | 0.24 nM | – |
| CCNC(=O)c1ncc(-c2cc3c(cc2OC)-c2cc(=O)c(C(=O)O)cn2C(C(C)(C)C)C3)s1 (stereo not shown) [Example 20, 6-tert-butyl-9-[2-(ethylcarbamoyl)thiazol-5-yl]-10-methoxy-2-oxo-6,7-dihydro-2H-pyrido[2,1-a]isoquinoline-3-carboxylic Acid] | 0.3 nM | – |
| CCOCc1ncc(-c2cc3c(cc2OC)-c2cc(=O)c(C(=O)O)cn2C(C(C)(C)C)C3)s1 (stereo not shown) [Example 14, 6-tert-butyl-9-[2-(ethoxymethyl)thiazol-5-yl]-10-methoxy-2-oxo-6,7-dihydro-2H-pyrido[2,1-a]isoquinoline-3-carboxylic Acid] | 0.2 nM | – |
